Read-outs that look alike come from different tables or passages of the source.
How the values were obtained:
[1] = test system: ZEAMX: corn (Zea mays); assay: Post-Emergent Test I herbicidal activity; type: in vivo; conditions: for GR20 ZEAMX: Table 4, growth reduction of 20% of plant growth; for GR20 ZEAMX / GR50 ZEAMX / GR80 ZEAMX: 14 days after application, probit analysis; for GR50 ZEAMX: Table 4, growth reduction of 50% of plant growth; for GR80 ZEAMX: Table 4, growth reduction of 80% of plant growth; for pest or weed control at 17.5 g/ha: Table 4, 17.5 g ai/ha; for pest or weed control at 35 g/ha: Table 4, 35 g ai/ha; for pest or weed control at 70 g/ha: Table 4, 70 g ai/ha
Summary of the method: (§1)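 Visual injury ratings (0 = none, 100 = complete kill) taken 14 d after treatment underlie these values, with GR20, GR50 and GR80 obtained by probit analysis. Plants were treated post-emergence at the first or second true-leaf stage by overhead spray at 187 L/ha.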

[2] = test system: TRZAS: wheat, spring (Triticum aestivum); assay: Post-Emergent Test I herbicidal activity; type: in vivo; conditions: for GR20 TRZAS: Table 4, growth reduction of 20% of plant growth; for GR20 TRZAS / GR50 TRZAS / GR80 TRZAS: 14 days after application, probit analysis; for GR50 TRZAS: Table 4, growth reduction of 50% of plant growth; for GR80 TRZAS: Table 4, growth reduction of 80% of plant growth
Summary of the method: (§2)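 Greenhouse plants at first-second true leaf stage sprayed post-emergence by track sprayer at 187 L/ha with compound in acetone/DMSO/water/isopropanol carrier with crop oil concentrate and Triton X-155, top rate plus ½× to 1/16× serial rates. Injury scored visually at 14 d, 0-100% versus untreated plants; GR20, GR50, GR80 from probit analysis.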

[3] = test system: EPHHL: wild poinsettia (Euphorbia heterophylla); assay: Post-Emergent Test I herbicidal activity; type: in vivo; conditions: post-emergence, 336 h, read-out: Visual Growth Reduction (%)-14 Days after Application EPHHL
Summary of the method: as §1

[4] = test system: POLCO: buckwheat, wild (Polygonum convolvulus); assay: Post-Emergent Test I herbicidal activity; type: in vivo; conditions: for GR20 POLCO: Table 4, growth reduction of 20% of plant growth; for GR20 POLCO / GR50 POLCO / GR80 POLCO: 14 days after application, probit analysis; for GR50 POLCO: Table 4, growth reduction of 50% of plant growth; for GR80 POLCO: Table 4, growth reduction of 80% of plant growth
Summary of the method: as §1

[5] = test system: ECHCG: barnyardgrass (Echinochloa crus-galli); assay: Post-Emergent Test I herbicidal activity; type: in vivo; conditions: post-emergence, 336 h, read-out: Visual Growth Reduction (%)-14 Days after Application ECHCG
Summary of the method: as §2

[6] = test system: ABUTH: velvetleaf (Abutilon theophrasti); assay: Post-Emergent Test I herbicidal activity; type: in vivo; conditions: for pest or weed control at 17.5 g/ha: Table 4, 17.5 g ai/ha; for pest or weed control at 35 g/ha: Table 4, 35 g ai/ha; for pest or weed control at 70 g/ha: Table 4, 70 g ai/ha; for GR20 ABUTH: Table 4, growth reduction of 20% of plant growth; for GR20 ABUTH / GR50 ABUTH / GR80 ABUTH: 14 days after application, probit analysis; for GR50 ABUTH: Table 4, growth reduction of 50% of plant growth; for GR80 ABUTH: Table 4, growth reduction of 80% of plant growth
Summary of the method: as §1

[7] = test system: CHEAL: lambsquarters (Chenopodium album); assay: Post-Emergent Test I herbicidal activity; type: in vivo; conditions: for pest or weed control at 17.5 g/ha: Table 4, 17.5 g ai/ha; for pest or weed control at 35 g/ha: Table 4, 35 g ai/ha; for pest or weed control at 70 g/ha: Table 4, 70 g ai/ha; for GR20 CHEAL: Table 4, growth reduction of 20% of plant growth; for GR20 CHEAL / GR50 CHEAL / GR80 CHEAL: 14 days after application, probit analysis; for GR50 CHEAL: Table 4, growth reduction of 50% of plant growth; for GR80 CHEAL: Table 4, growth reduction of 80% of plant growth
Summary of the method: as §1

[8] = test system: ORYSA: rice (Oryza sativa); assay: Post-Emergent Test I herbicidal activity; type: in vivo; conditions: post-emergence, 336 h, read-out: Visual Growth Reduction (%)-14 Days after Application ORYSA
Summary of the method: as §2

[9] = test system: CYPES: yellow nutsedge (Cyperus esculentus); assay: Post-Emergent Test I herbicidal activity; type: in vivo; conditions: post-emergence, 336 h, read-out: Visual Growth Reduction (%)-14 Days after Application CYPES
Summary of the method: as §1

[10] = Zea mays, post-emergence, 336 h, read-out: Visual Growth Reduction (%)-14 Days after Application ZEAMX
[11] = Zea mays, post-emergence, 336 h, Table 4, 140 g ai/ha, read-out: Visual Growth Reduction (%)-14 Days after Application ZEAMX
[12] = Abutilon theophrasti, post-emergence, 336 h, read-out: Visual Growth Reduction (%)-14 Days after Application ABUTH
[13] = Abutilon theophrasti, post-emergence, 336 h, Table 4, 140 g ai/ha, read-out: Visual Growth Reduction (%)-14 Days after Application ABUTH
[14] = Chenopodium album, post-emergence, 336 h, read-out: Visual Growth Reduction (%)-14 Days after Application CHEAL

COc1c(C(=O)O)nc(-c2ccc(Cl)c(OC)c2F)c(F)c1N [Compound 45, 4-amino-6-(4-chloro-2-fluoro-3-methoxyphenyl)-5-fluoro-3-methoxypicolinic acid]
90%: pest or weed control at 8.75 g/ha ([6]; Abutilon theophrasti, post-emergence, 336 h, Table 4, 8.75 g ai/ha, read-out: Visual Growth Reduction (%)-14 Days after Application ABUTH) | pest or weed control at 8.75 g/ha ([7]; Chenopodium album, post-emergence, 336 h, Table 4, 8.75 g ai/ha, read-out: Visual Growth Reduction (%)-14 Days after Application CHEAL)
<8.75 g ai/ha: GR20 ZEAMX [1] | GR20 POLCO [4] | GR50 POLCO [4] | GR80 POLCO [4] | GR20 ABUTH [6] | GR50 ABUTH [6] | GR80 ABUTH [6] | GR20 CHEAL [7] | GR50 CHEAL [7] | GR80 CHEAL [7]
65%: pest or weed control at 140 g/ha ([1]; Zea mays, post-emergence, 336 h, Table 3, 140 g ai/ha, read-out: Visual Growth Reduction (%)-14 Days after Application ZEAMX) | pest or weed control at 140 g/ha [1, 11] | Visual Growth Reduction (%)-14 Days after Application TRZAS ([2]; Table 4, 140 g ai/ha)
0%: pest or weed control at 140 g/ha ([8]; Table 3, 140 g ai/ha)
55%: pest or weed control at 35 g/ha [1, 10] | Visual Growth Reduction (%)-14 Days after Application TRZAS ([2]; Table 4, 35 g ai/ha)
14.3 g ai/ha: GR20 TRZAS [2]
20%: Visual Growth Reduction (%)-14 Days after Application TRZAS ([2]; Table 4, 17.5 g ai/ha)
60%: pest or weed control at 70 g/ha [1, 10] | Visual Growth Reduction (%)-14 Days after Application TRZAS ([2]; Table 4, 70 g ai/ha)
50%: pest or weed control at 8.75 g/ha ([1]; Zea mays, post-emergence, 336 h, Table 4, 8.75 g ai/ha, read-out: Visual Growth Reduction (%)-14 Days after Application ZEAMX) | pest or weed control at 17.5 g/ha [1, 10]
143 to 146 °C: melting point
>140 g ai/ha: GR80 ZEAMX [1] | GR80 TRZAS [2]
100%: pest or weed control at 140 g/ha ([3]; Table 3, 140 g ai/ha) | Visual Growth Reduction (%)-14 Days after Application POLCO ([4]; Table 4, 8.75 g ai/ha) | Visual Growth Reduction (%)-14 Days after Application POLCO ([4]; Table 4, 17.5 g ai/ha) | Visual Growth Reduction (%)-14 Days after Application POLCO ([4]; Table 4, 35 g ai/ha) | Visual Growth Reduction (%)-14 Days after Application POLCO ([4]; Table 4, 70 g ai/ha) | Visual Growth Reduction (%)-14 Days after Application POLCO ([4]; Table 4, 140 g ai/ha) | pest or weed control at 140 g/ha ([5]; Table 3, 140 g ai/ha) | pest or weed control at 140 g/ha ([6]; Abutilon theophrasti, post-emergence, 336 h, Table 3, 140 g ai/ha, read-out: Visual Growth Reduction (%)-14 Days after Application ABUTH) | pest or weed control at 17.5 g/ha [6, 12] | pest or weed control at 35 g/ha [6, 12] | pest or weed control at 70 g/ha [6, 12] | pest or weed control at 140 g/ha [6, 13] | pest or weed control at 140 g/ha ([7]; Chenopodium album, post-emergence, 336 h, Table 3, 140 g ai/ha, read-out: Visual Growth Reduction (%)-14 Days after Application CHEAL) | pest or weed control at 17.5 g/ha [7, 14] | pest or weed control at 35 g/ha [7, 14] | pest or weed control at 70 g/ha [7, 14] | Visual Growth Reduction (%)-14 Days after Application CHEAL ([7]; Table 4, 140 g ai/ha) | pest or weed control at 140 g/ha ([9]; Table 3, 140 g ai/ha)
12.4 g ai/ha: GR50 ZEAMX [1]
10%: Visual Growth Reduction (%)-14 Days after Application TRZAS ([2]; Table 4, 8.75 g ai/ha)
53.5 g ai/ha: GR50 TRZAS [2]

COC(=O)c1nc(Cl)cc(N)c1OC [Compound 1, methyl 4-amino-6-chloro-3-methoxypicolinate]
90%: pest or weed control at 17.5 g/ha [7, 14] | pest or weed control at 35 g/ha [7, 14]
85%: pest or weed control at 35 g/ha [6, 12]
10.5 g ai/ha: GR20 ABUTH [6]
19.4 g ai/ha: GR50 ABUTH [6]
35.9 g ai/ha: GR80 ABUTH [6]
>280 g ai/ha: GR20 ZEAMX [1] | GR50 ZEAMX [1] | GR80 ZEAMX [1] | GR20 TRZAS [2] | GR50 TRZAS [2] | GR80 TRZAS [2]
95%: Visual Growth Reduction (%)-14 Days after Application POLCO ([4]; Table 4, 140 g ai/ha) | pest or weed control at 70 g/ha [6, 12] | pest or weed control at 140 g/ha [6, 13] | pest or weed control at 70 g/ha [7, 14]
0%: pest or weed control at 280 g/ha ([1]; Zea mays, post-emergence, 336 h, Table 3, 280 g ai/ha, read-out: Visual Growth Reduction (%)-14 Days after Application ZEAMX) | pest or weed control at 17.5 g/ha [1, 10] | pest or weed control at 35 g/ha [1, 10] | pest or weed control at 70 g/ha [1, 10] | pest or weed control at 140 g/ha [1, 11] | pest or weed control at 280 g/ha ([1]; Zea mays, post-emergence, 336 h, Table 4, 280 g ai/ha, read-out: Visual Growth Reduction (%)-14 Days after Application ZEAMX) | Visual Growth Reduction (%)-14 Days after Application TRZAS ([2]; Table 4, 17.5 g ai/ha) | Visual Growth Reduction (%)-14 Days after Application TRZAS ([2]; Table 4, 35 g ai/ha) | Visual Growth Reduction (%)-14 Days after Application TRZAS ([2]; Table 4, 70 g ai/ha) | Visual Growth Reduction (%)-14 Days after Application TRZAS ([2]; Table 4, 140 g ai/ha) | Visual Growth Reduction (%)-14 Days after Application TRZAS ([2]; Table 4, 280 g ai/ha) | pest or weed control at 280 g/ha ([5]; Table 3, 280 g ai/ha) | pest or weed control at 280 g/ha ([8]; Table 3, 280 g ai/ha) | pest or weed control at 280 g/ha ([9]; Table 3, 280 g ai/ha)
<17.5 g ai/ha: GR20 POLCO [4] | GR50 POLCO [4] | GR80 POLCO [4] | GR20 CHEAL [7] | GR50 CHEAL [7] | GR80 CHEAL [7]
100%: pest or weed control at 280 g/ha ([3]; Table 3, 280 g ai/ha) | Visual Growth Reduction (%)-14 Days after Application POLCO ([4]; Table 4, 17.5 g ai/ha) | Visual Growth Reduction (%)-14 Days after Application POLCO ([4]; Table 4, 35 g ai/ha) | Visual Growth Reduction (%)-14 Days after Application POLCO ([4]; Table 4, 70 g ai/ha) | Visual Growth Reduction (%)-14 Days after Application POLCO ([4]; Table 4, 280 g ai/ha) | pest or weed control at 280 g/ha ([6]; Abutilon theophrasti, post-emergence, 336 h, Table 3, 280 g ai/ha, read-out: Visual Growth Reduction (%)-14 Days after Application ABUTH) | pest or weed control at 280 g/ha ([6]; Abutilon theophrasti, post-emergence, 336 h, Table 4, 280 g ai/ha, read-out: Visual Growth Reduction (%)-14 Days after Application ABUTH) | pest or weed control at 280 g/ha ([7]; Chenopodium album, post-emergence, 336 h, Table 3, 280 g ai/ha, read-out: Visual Growth Reduction (%)-14 Days after Application CHEAL) | pest or weed control at 140 g/ha ([7]; Chenopodium album, post-emergence, 336 h, Table 4, 140 g ai/ha, read-out: Visual Growth Reduction (%)-14 Days after Application CHEAL) | Visual Growth Reduction (%)-14 Days after Application CHEAL ([7]; Table 4, 280 g ai/ha)
40%: pest or weed control at 17.5 g/ha [6, 12]
78 to 79 °C: melting point

— patent US9518018B2, “3-alkoxy, thioalkyl and amino-4-amino-6-(substituted)picolinates and their use as herbicides” (Dow AgroSciences LLC, priority 2011, dated 2016)
